Experiments:
recombinant human MAS1 = biological target: T1, recombinant human MAS1 (Homo sapiens, UniProt P04201); test: MAS1 activation: cell-based fluorescence assay of NO release in CHO cells stably transfected with MAS1; conditions: for intracellular concentration of NO in the presence of MAS1 antagonist A779: A779 at 0.1 μM for 15 min before addition; for intracellular concentration of NO (fluorescence): no antagonist, 2 hours
T1 construct: expressed in transfected cells; host or cells: CHO cells, stably transfected with pTEJ-8 vector
T1 sequence (P04201 1-325): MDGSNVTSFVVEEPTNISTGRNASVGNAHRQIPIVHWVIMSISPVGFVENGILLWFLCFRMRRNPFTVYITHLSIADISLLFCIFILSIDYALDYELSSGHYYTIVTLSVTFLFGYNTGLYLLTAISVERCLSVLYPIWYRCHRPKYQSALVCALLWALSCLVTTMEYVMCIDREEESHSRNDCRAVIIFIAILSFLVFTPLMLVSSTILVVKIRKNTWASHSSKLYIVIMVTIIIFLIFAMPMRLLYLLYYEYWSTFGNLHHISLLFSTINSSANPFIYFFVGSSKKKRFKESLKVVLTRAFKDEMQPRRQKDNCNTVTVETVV
Method: CHO cells stably transfected with pTEJ-8 vector expressing recombinant human MAS1 clone are grown to confluency. After washing, cells are incubated for a short time in 700 μL of supplemented Tyrode's salts containing 10 μM 2-phenyl-4,4,5,5-tetramethylimidazoline-1-oxyl-3-oxide (PTIO), 100 μM 2,3-diaminonaftalene (DAN), and 1 mM L-arginine. When using antagonist for competition assays, cells are exposed to MAS1 antagonist A779 (D-Ala^7-AT 1-7) at 0.1 μM for 15 min before addition of the cyclotides to be tested. Different concentrations of the cyclotides to be analyzed are added to the cell medium and the plates are agitated for 1 min before being placed into the incubator for 2 hours. After 2 hours, the cellular supernatants are transferred to opaque 96 well plates, and the amount of released NO is measured by fluorescence (λex=380 nm, λem=425 nm).

human lung cancer cells = conditions: through activation of MAS1; cited from earlier work
cyclooxygenase-2 (COX-2) = conditions: xenograft tumor; cited from earlier work
[1] = tested on: human lung adenocarcinoma xenografts; conditions: cited from earlier work
cyclooxygenase 1 (COX-1) = conditions: same xenograft tumor; cited from earlier work
[2] = Method: This was accomplished by incubating the corresponding peptides in human serum at 37° C. The quantitative analysis of undigested polypeptides was performed using liquid chromatography coupled with tandem mass spectrometry (LC-MS/MS). Naturally occurring MCoTI-cyclotides present a very rigid structure, which makes them extremely stable to proteolytic degradation.
Human serum was spun down at 15,000 rpm for 10 min to separate the lipid components. Peptides (about 15 μg dissolved in 15 μl PBS) were mixed with 150 μl human serum and incubated in a 37° C. water bath. Aliquot samples (15 μL) were taken at different time points and serum protein were precipitated with about 70% MeCN at 4° C. for 10 min. The supernatant was separated, lyophilized, dissolved in 5% MeCN in water containing 0.1% formic acid, and analyzed by HPLC-MS/MS.

For `CC[C@H](C)[C@H](NC(=O)[C@H](Cc1ccc(O)cc1)NC(=O)[C@@H](NC(=O)[C@H](CCCNC(=N)N)NC(=O)[C@@H](N)CC(=O)O)C(C)C)C(=O)N[C@@H](Cc1c[nH]cn1)C(=O)N1CCC[C@H]1C(=O)O` [AT1-7, DRVYIHP], the “intracellular concentration of NO in the presence of MAS1 antagonist A779” value (recombinant human MAS1; MAS1-transfected CHO cells) is given as “A similar profile was obtained”, the “intracellular concentration of NO (fluorescence)” value (recombinant human MAS1; MAS1-transfected CHO cells) is given as “increase the intracellular concentration of NO in a dose dependent manner” and the “serum-stimulated growth of human lung cancer cells” value (human lung cancer cells) is given as “reduce serum-stimulated growth of human lung cancer cells both in vitro and in vivo”. The COX-2 activity (cyclooxygenase-2 (COX-2)) was “reduction in cyclooxygenase-2 (COX-2) activity”, the tumor growth [1] was “inhibit tumor growth” and the COX-1 activity (cyclooxygenase 1 (COX-1)) was “no effect”. For the same compound, the “τ1/2 in human serum” value [2] was 44 ± 3 min.
For “GGVCPKILQRCRRDSDCPGACICRGNGYCGSGXRVYIHE [MCo-AT1-7, MCoTI-I cyclotide with AT1-7-derived peptide (Asp1 to diaminopropionic acid, Pro7 to Glu) grafted onto loop 6 via two isopeptide bonds]”, the “MAS1 agonist activity (summary statement)” value (recombinant human MAS1; MAS1-transfected CHO cells) was “potent MAS1 agonist, with similar activity to that of the peptide AT1-7”, the “intracellular concentration of NO in the presence of MAS1 antagonist A779” value (recombinant human MAS1; MAS1-transfected CHO cells) was “no increase in the intracellular concentration of NO was detected” and the “intracellular concentration of NO (fluorescence)” value (recombinant human MAS1; MAS1-transfected CHO cells) was “increase the intracellular concentration of NO in a dose dependent manner”. For the same compound, the “activity relative to that of peptide AT1-7” value (recombinant human MAS1; at 10 nM, NO release assay) was “about 90%”.

— patent US10988522B2, “Proteolically resistant cyclotides with angiotensin 1-7 like activity” (University of Southern California, priority 2016, dated 2021)
